ChEMBL document CHEMBL4765280, “Carvedilol serves as a novel CYP1B1 inhibitor, a systematic drug repurposing approach through structure-based virtual screening and experimental verification” (Eur J Med Chem, 2020)

Legend:
Cytochrome P450 1B1 [1] = target: T1, Cytochrome P450 1B1 (Homo sapiens, UniProt Q16678); assay: Inhibition of human CYP1B1 using 7-ethyl-O-resorufin as substrate incubated for 30 mins in presence of NADPH by EROD assay
T1 sequence (Q16678 whole entry): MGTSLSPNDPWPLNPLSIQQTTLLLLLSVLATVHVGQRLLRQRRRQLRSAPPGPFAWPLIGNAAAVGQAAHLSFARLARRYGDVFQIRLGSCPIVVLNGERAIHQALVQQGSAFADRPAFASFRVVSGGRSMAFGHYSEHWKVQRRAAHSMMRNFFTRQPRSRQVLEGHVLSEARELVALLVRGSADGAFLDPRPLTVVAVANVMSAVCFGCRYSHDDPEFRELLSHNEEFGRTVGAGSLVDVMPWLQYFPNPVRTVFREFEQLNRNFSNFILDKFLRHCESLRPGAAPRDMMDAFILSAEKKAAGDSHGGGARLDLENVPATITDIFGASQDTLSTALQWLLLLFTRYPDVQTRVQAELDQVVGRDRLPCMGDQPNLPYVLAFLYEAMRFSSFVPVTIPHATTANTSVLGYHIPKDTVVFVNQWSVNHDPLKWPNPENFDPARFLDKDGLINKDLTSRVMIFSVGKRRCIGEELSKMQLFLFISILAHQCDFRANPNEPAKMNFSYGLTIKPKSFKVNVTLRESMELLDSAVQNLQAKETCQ

Cytochrome P450 1B1 [2] = target: T1, Cytochrome P450 1B1; assay: Inhibition of human CYP1B1 at 5 uM using 7-ethyl-O-resorufin as substrate incubated for 30 mins in presence of NADPH by EROD assay; details: 0.5 h
A549/Taxol = assay: Cytotoxicity against human A549/Taxol cells assessed as reduction in cell viability after 72 hrs by MTT assay; format: functional, cell-based; details: dose 5-10 µM
A549 = assay: Cytotoxicity against human A549 cells assessed as reduction in cell viability after 72 hrs by MTT assay; format: functional, cell-based; details: dose 5-10 µM

| SMILES | IC50 (Cytochrome P450 1B1 [1]) | inhibition (INH) (Cytochrome P450 1B1 [2]) | Activity (A549/Taxol) | Activity (A549) |
| --- | --- | --- | --- | --- |
| COc1ccccc1OCCNCC(O)COc1cccc2[nH]c3ccccc3c12 (stereo not given) [CARVEDILOL] | 1.1 µM | Active | Dose-dependent effect | Dose-dependent effect |
| C#C[C@]1(O)CC[C@H]2[C@@H]3CCc4cc(O)ccc4[C@H]3CC[C@@]21C [ETHINYL ESTRADIOL] | – | Not Active | – | – |
| CCN(CCO)CCCC(C)Nc1ccnc2cc(Cl)ccc12.O=S(=O)(O)O (stereo not given) [HYDROXYCHLOROQUINE SULFATE] | – | Not Active | – | – |

More lines, main results first:

| IC50 (Cytochrome P450 1B1 [1]) | inhibition (INH) (Cytochrome P450 1B1 [2]) | SMILES | Activity (A549/Taxol) | Activity (A549) |
| --- | --- | --- | --- | --- |
| 59.2 µM | Active | CCc1cc2c(cc1CC)CC(NC[C@H](O)c1ccc(O)c3[nH]c(=O)ccc13)C2 [INDACATEROL] | – | – |
| – | Not Active | CC(CCc1ccccc1)NCC(O)c1ccc(O)c(C(N)=O)c1 (stereo not given) [LABETALOL] | – | – |
| – | Not Active | C=C[C@H]1C[N@@]2CC[C@H]1C[C@@H]2[C@@H](O)c1ccnc2ccc(OC)cc12 [QUINIDINE] | – | – |
